According to publication PMC6143625, “A high throughput screen for next-generation leads targeting malaria parasite transmission” (Nature Communications, 2018):

Experiments:
[1] = system: P. falciparum 3D7 asexual blood stages; test: Whole-cell time extended asexual growth assay (pLDH); assay type: cell-based; conditions: Plasmodium falciparum, 72 h; for IC50: dose response retest, read-out: IC50 (µM) Asex stages; for inhibition at 2 µM: primary screen, read-out: %Inh Asex stages @2uM
Procedure: Asexual activity was assayed via Plasmodium lactate dehydrogenase activity (pLDH), a surrogate of asexual parasite growth. […] 2 µM artesunate and DMSO were used as the positive and negative controls, respectively. […] After plate mixing, NBT reduction was measured by absorbance at 650 nm using Envision (Perkin Elmer).

HepG2 human cells = system: HepG2 human cells; design: method as in http://dx.doi.org/10.6019/CHEMBL3507680; conditions: ref http://dx.doi.org/10.6019/CHEMBL3507680; cited from earlier work

| IC50 [1] | Structure (SMILES) | inhibition at 2 µM [1] | %Inh HepG2 @10uM (HepG2 human cells) |
| --- | --- | --- | --- |
| 0.201 µM | c1cc(-c2n[nH]cc2-c2ccnc(N3CCCC3)n2)ccn1 [DDD01235828] | 46.4% | -2.36% |
| 3.02 µM | COc1ccc2[nH]cc(-c3ccnc(NC4CCCC4)n3)c2c1 [DDD01235847] | 33.7% | -0.78% |
| 1.16 µM | CCCn1cc(-c2ccnc(NC3CCc4ccccc4C3)n2)c(C)n1 (stereo not drawn) [DDD01243522] | 31.2% | 19.33% |
| 3.87 µM | COc1cccc(CN2CC(=O)N(c3ccccc3C)CC2C)c1OC (stereo not drawn) [DDD01244654] | 51.8% | -6.78% |
| 1.3 µM | CNc1nc(C)cc(NCc2cc(C)cc3c(C)c(C)[nH]c23)n1 [DDD01244907] | 91.8% | 98.78% |
| 1.56 µM | CC1CCCCN1C(=O)c1coc(COc2cccc3cnccc23)n1 (stereo not drawn) [DDD01245028] | 66.8% | -6.78% |
| 4.85 µM | NCC1Cc2cc(-c3nccc(N4CCC(O)CC4)n3)cc(Cl)c2O1 (stereo not drawn) [DDD01245918] | 72.6% | 5.41% |
| 3.31 µM | CCn1cc(CN2CCN(Cc3cc(C)cc(C)c3)C(=O)C2)cc1C#N [DDD01246382] | 37.3% | 15.63% |
| 4.53 µM | CCCn1ncc(-c2ccnc(NC3CC(C)(C)NC(C)(C)C3)n2)c1C [DDD01246448] | 41.5% | 80.08% |
| 2.95 µM | CC1(c2ccccc2)CCCN(Cc2cncn2C2CCCC2)C1 (stereo not drawn) [DDD01246491] | 39.7% | -13.60% |
| 2.25 µM | COc1ccnc(CN2CCCC(CCc3ccc(F)cc3)C2)c1OC (stereo not drawn) [DDD01246654] | 51% | 2.04% |
| 2.13 µM | Cc1ccc2[nH]c(-c3cn(C4CCNCC4)nn3)nc2c1C [DDD01246711] | 63.9% | -3.44% |
| 1.4 µM | CCN1CCN(C[C@@H]2CN(c3ncc(Cl)cc3F)C[C@@H]2CO)CC1 [DDD01246828] | 82.5% | -10.90% |
| 8.09 µM | N#Cc1cccc(N2CCCC(CO)(CCOc3ccccc3)C2)n1 (stereo not drawn) [DDD01247086] | 32% | 8.55% |
| 3.35 µM | CC(C)CN1CCCC1c1ccc(C(=O)Nc2cccnc2)s1 (stereo not drawn) [DDD01247321] | 34.5% | 0.07% |
| 1.46 µM | CCn1cc(CN2CCN(Cc3cccc(OC)c3)C(=O)C2)cc1C#N [DDD01247460] | 76.2% | -1.17% |
| 6.32 µM | COc1ccccc1OCCCc1cccc(C#N)n1 [DDD01247630] | 36% | -1.85% |
| 1.91 µM | COc1cccc(CN(C)Cc2[nH]c3ccccc3c2C)c1O [DDD01247848] | 91.2% | 1.38% |
| 1.79 µM | CNc1cc(C)nc(NCc2cc(C)cc3c(C)c(C)[nH]c23)n1 [DDD01248198] | 69.2% | 67.15% |
| 9.68 µM | CC(C)c1cc(CN(C)C(=O)C(C)N2CCc3ccccc3C2)no1 (stereo not drawn) [DDD01248554] | 36% | 34.35% |
| 3.44 µM | Cc1cccnc1[C@H](C)Nc1nc(-c2cccnc2)nc2c1CNC2 [DDD01248607] | 50% | -8.07% |
| 1.4 µM | CC(C)Cc1ncc2c(n1)CN(c1nccc(NC(C)C)n1)C2 [DDD01249567] | 92.8% | 2.52% |
| 3.82 µM | Cc1cccc2[nH]c(-c3cn(C4CCNCC4)nn3)nc12 [DDD01250141] | 34.6% | -3.11% |
| 5.78 µM | CCCc1nc(N(C)CCN2CCCCCC2)c2cnn(C)c2n1 [DDD01250696] | 32.1% | -11.00% |

The next lines start with the compound.

| Structure (SMILES) | IC50 [1] | inhibition at 2 µM [1] | %Inh HepG2 @10uM (HepG2 human cells) |
| --- | --- | --- | --- |
| Cc1cc(CN2CCc3nc(-c4ccncc4)nc(O)c3CC2)c(C)s1 [DDD01058881] | 2.2 µM | 77.5% | -7.80% |
| CN(C)CCN(C)C(=O)Cn1cccc2cc(-c3ccc(F)cc3)nc1-2 [DDD01059044] | 1.29 µM | 97% | 4.32% |
| CCN1c2ccc(-c3cncn3CC(=O)NC(C)(C)C)cc2CC1C.Cl (stereo not drawn) [DDD01059258] | 2.95 µM | 82.1% | -7.81% |
| c1ccc(-c2cc(CNCCN3CCCC3)c3nnnn3c2)cc1 [DDD01059599] | 1.55 µM | 79.4% | -3.47% |
| COc1ccc(F)c(CN(CCCn2ccnc2)Cc2ccc(C)s2)c1.O=C(O)CC(O)(CC(=O)O)C(=O)O [DDD01059675] | 8.49 µM | 33.8% | 45.48% |
| CN(CCCOc1ccccc1)C(=O)c1csc(-c2nnc[nH]2)n1 [DDD01061692] | 2.03 µM | 34.8% | -5.84% |
| Clc1ccc(C2(CNC3=NCCN3)CC2)cc1.I [DDD01067441] | 1.95 µM | 40.6% | 10.02% |
| COc1cc(C)sc1C(=O)NCCNc1ccccc1 [DDD01067535] | 2.4 µM | 41.9% | 11.25% |
| COc1cc2nc(NCc3ccc(C)nc3)nc(N)c2cc1OC [DDD01069328] | 2.24 µM | 58% | -5.25% |
| Clc1cccc(CNC2CCN(CCc3ccncc3)CC2)c1 [DDD01069722] | 2.28 µM | 57.5% | 0.53% |
| COc1ccccc1CN(C)C(=O)CN1CC(n2nc(C)cc2C)C1 [DDD01071519] | 2.5 µM | 44.4% | -2.12% |
| COc1ccc(C(=O)NCCCOC(C)c2ccccc2)c(OC)c1 (stereo not drawn) [DDD01071935] | 2.68 µM | 41.6% | -11.10% |
| CCC(=O)NCC(c1ccc(SC)cc1)N1CCc2sccc2C1 (stereo not drawn) [DDD01071943] | 2.03 µM | 64.5% | -8.32% |
| CN(C)c1ccnc(N2CCC(NCCOc3ccccc3)CC2)n1 [DDD01072965] | 7.83 µM | 30.8% | 19.60% |
| CCOCC1CCN(C(=O)Nc2ccc3c(c2)CCCN3C)C1 (stereo not drawn) [DDD01073381] | 1.9 µM | 31.9% | -10.40% |
| COc1cccc(CNc2cc(C)nc(-c3ccncc3)n2)c1OC [DDD01073393] | 4.85 µM | 40.5% | -6.44% |
| O=C(c1ccccc1)C1CCN(Cc2cc3c(cc2O)CCC3)CC1 [DDD01073482] | 1.75 µM | 48.9% | 33.89% |

| Structure (SMILES) | IC50 [1] | inhibition at 2 µM [1] | %Inh HepG2 @10uM (HepG2 human cells) |
| --- | --- | --- | --- |
| CC1CCN(c2ccnc3ccc(Br)cc23)CC1 [DDD01075547] | 9.1 µM | 35.9% | 2.00% |
| Cc1cnc(NCc2ccc(S(=O)(=O)N(C)C(C)C)cc2)nc1C [DDD01077176] | 3.18 µM | 42.2% | -11.10% |
| N#Cc1c(Cl)nsc1NCCCN1C(=O)COc2ccccc21 [DDD01077687] | 3.47 µM | 39.1% | 8.75% |
| COc1ccc(Oc2cc(CN)ccn2)cc1 [DDD01078308] | 6.7 µM | 30.1% | 2.32% |
| NC(=O)CN1CCC(Nc2ccnc3ccc(Cl)cc23)CC1 [DDD01078433] | 1.24 µM | 82% | -1.05% |
| Cc1cc(=O)n2nc(Oc3ccc(Cl)c(C)c3)sc2n1 [DDD01078480] | 3.34 µM | 42% | -6.83% |
| COc1c(C)cnc(CN(C)C2CCCCC2)c1C [DDD01078822] | 5.74 µM | 35.1% | 8.25% |
| CCOCc1ccc(CNC2=NCCCN2)cc1.I [DDD01079448] | 1.58 µM | 40.1% | -2.49% |
| Cc1ccc(CNC2CCN(CCc3ccncc3)CC2)cc1C [DDD01080013] | 1.81 µM | 77% | 1.32% |
| COc1cccc(CN(C)C(=O)CN2CC(n3nc(C)cc3C)C2)c1 [DDD01080719] | 2.29 µM | 49.9% | -1.82% |
| CCS(=O)(=O)N1CCC2(CC1)CN(CC1CCOC1)c1ccccc12.O=C(O)C(F)(F)F (stereo not drawn) [DDD01082339] | 7.55 µM | 46% | 25.95% |
| O=C(O)C(F)(F)F.c1ccc(CN2CCC3(CC2)CC(Nc2nccs2)CO3)nc1 (stereo not drawn) [DDD01083119] | 7.18 µM | 37.5% | -8.19% |
| CC(C)N(C)Cc1cnc2n1CCN(C(=O)NC1CCCC1)C2.O=C(O)C(F)(F)F [DDD01085014] | 4.32 µM | 42.5% | -9.47% |
| O=C(NCCCN1CCOCC1)c1ccn(-c2ccc3ccccn23)n1.O=C(O)C(F)(F)F [DDD01085308] | 2.53 µM | 50.4% | 23.54% |
| O=C(O)C1CC2(CCN(c3nccc4ccccc34)CC2)CN1 (stereo not drawn) [DDD01246093] | 3.51 µM | 35.8% | 9.49% |
| CCc1[nH]c2c(CNc3cc(C)nc(NC)n3)cc(C)cc2c1C [DDD01250162] | 1.2 µM | 55.3% | 98.31% |
